System: eyes
Assay: Corneal collagen cross-linking with riboflavin and sodium iodide; post-operative corneal haze
Type: in vivo
Details: corneal collagen cross-linking utilizing 0.5% riboflavin and 0.015% (1 mmol) sodium iodide; over 200 eyes; compared to historical cross-linking procedures performed without sodium iodide
Description: Corneal collagen cross-linking utilizing 0.5% riboflavin and 0.015% (1 mmol) sodium iodide was performed in over 200 eyes.

## [I-].[Na+] [sodium iodide]
  Post-operative corneal haze: minimal

Reference: patent publication US11497766B2, “Compositions and methods for treating or preventing diseases associated with oxidative stress” (CXL OPHTHALMICS, LLC, priority 2012, dated 2022)
